Data on one compound can be found in patent US9364566B2, “Aqueous formulation for selective targeting and delivering gene to cancer cells” (Council of Scientific and Industrial Research, priority 2006, dated 2016).

The series deals with non-cancer cells. In words: Toxicity to non-cancer cells. The class given is cell-based. Particulars: at the concentration at which dexamethasone is used in the formulation. The source says:
In the context the present invention stands with complete patentability because the formulation uses our own patented cationic lipid along side a secondary co-lipid dexamethasone, and a common, generic, glucocorticoid. The dexamethasone is not modified at all and is used as such. […] The use of dexamethasone for the targeted gene delivery to cancer is not documented in any of these papers.
Cell-Culture—MCF-7, CHO, A549 cells were purchased from National Center for Cell Sciences (Pune, India) and were mycoplasma free. Cells were cultured in DMEM medium (Sigma Chemical Co., St. Louis, Mo.) containing 10% fetal bovine serum (Sigma Chemical Co., St. Louis, Mo.) and 1% penicillin-streptomycin at […] in a humidified atmosphere of 5% CO2 in air. Cultures of 85-90% confluency were used for all of the experiments. The cells were trypsinized, counted, subcultured in 96-well plates for transfection and viability studies. The cells were allowed to adhere overnight before they were used for experiments.

In the case of `C[C@@H]1C[C@H]2[C@@H]3CCC4=CC(=O)C=C[C@]4(C)[C@@]3(F)[C@@H](O)C[C@]2(C)[C@@]1(O)C(=O)CO` [dexamethasone], the “toxicity to non-cancer cells” value is recorded as “did not induce any toxicity”.
